Results as given in PubChem BioAssay (NCI).
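48-hour exposure; five concentrations; linearly interpolated endpoints. TGI: total growth inhibition.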

Tests used:
Assay in all cases: DTP human tumour cell line panel, 48 h
SK-OV-3 ovarian = tested on: SK-OV-3 ovarian
CCRF-CEM leukemia = tested on: CCRF-CEM leukemia
NCI-H226 lung = tested on: NCI-H226 lung
M14 melanoma = tested on: M14 melanoma
SW-620 colon = tested on: SW-620 colon
SNB-75 CNS = tested on: SNB-75 CNS
SN12C renal = tested on: SN12C renal
SF-539 CNS = tested on: SF-539 CNS
SF-268 CNS = tested on: SF-268 CNS
HOP-18 NSCLC = tested on: HOP-18 NSCLC
TK-10 renal = tested on: TK-10 renal
SK-MEL-28 melanoma = tested on: SK-MEL-28 melanoma
NCI-H460 lung = tested on: NCI-H460 lung
KM20L2 colon = tested on: KM20L2 colon
UACC-62 melanoma = tested on: UACC-62 melanoma
OVCAR-8 ovarian = tested on: OVCAR-8 ovarian
SNB-78 CNS = tested on: SNB-78 CNS
HL-60(TB) leukemia = tested on: HL-60(TB) leukemia
DMS 273 small cell lung = tested on: DMS 273 small cell lung
OVCAR-3 ovarian = tested on: OVCAR-3 ovarian
LXFL 529 NSCLC = tested on: LXFL 529 NSCLC
A498 renal = tested on: A498 renal
U251 CNS = tested on: U251 CNS
HCT-15 colon = tested on: HCT-15 colon
K-562 leukemia = tested on: K-562 leukemia
UO-31 renal = tested on: UO-31 renal
IGROV1 ovarian = tested on: IGROV1 ovarian
NCI-H522 lung = tested on: NCI-H522 lung
HOP-92 NSCLC = tested on: HOP-92 NSCLC
LOX IMVI melanoma = tested on: LOX IMVI melanoma
CAKI-1 renal = tested on: CAKI-1 renal
M19-MEL melanoma = tested on: M19-MEL melanoma
SF-295 CNS = tested on: SF-295 CNS
MOLT-4 leukemia = tested on: MOLT-4 leukemia
ACHN renal = tested on: ACHN renal
SNB-19 CNS = tested on: SNB-19 CNS
COLO 205 colon = tested on: COLO 205 colon
DMS 114 small cell lung = tested on: DMS 114 small cell lung
SK-MEL-5 melanoma = tested on: SK-MEL-5 melanoma
EKVX NSCLC = tested on: EKVX NSCLC
HT29 colon = tested on: HT29 colon
MALME-3M melanoma = tested on: MALME-3M melanoma
SK-MEL-2 melanoma = tested on: SK-MEL-2 melanoma
NCI-H23 lung = tested on: NCI-H23 lung
RPMI-8226 leukemia = tested on: RPMI-8226 leukemia
DLD-1 colon = tested on: DLD-1 colon
HCT-116 colon = tested on: HCT-116 colon
OVCAR-5 ovarian = tested on: OVCAR-5 ovarian
KM12 colon = tested on: KM12 colon
SR leukemia = tested on: SR leukemia
RXF 393 renal = tested on: RXF 393 renal
HOP-62 NSCLC = tested on: HOP-62 NSCLC
UACC-257 melanoma = tested on: UACC-257 melanoma
A549 NSCLC = tested on: A549 NSCLC
OVCAR-4 ovarian = tested on: OVCAR-4 ovarian
786-0 renal = tested on: 786-0 renal
HCC-2998 colon = tested on: HCC-2998 colon

COc1ccccc1C1C(C(=O)O)=C(CO)Oc2cc3c(cc21)OCO3 (centres undefined)
TGI (SK-OV-3 ovarian): > 100 µM
TGI (CCRF-CEM leukemia): > 100 µM
TGI (NCI-H226 lung): > 100 µM
TGI (M14 melanoma): > 100 µM
TGI (SW-620 colon): > 100 µM
TGI (SNB-75 CNS): > 100 µM
TGI (SN12C renal): > 100 µM
TGI (SF-539 CNS): > 100 µM
TGI (SF-268 CNS): > 100 µM
TGI (HOP-18 NSCLC): > 100 µM
TGI (TK-10 renal): > 100 µM
TGI (SK-MEL-28 melanoma): > 100 µM
TGI (NCI-H460 lung): > 100 µM
TGI (KM20L2 colon): > 100 µM
TGI (UACC-62 melanoma): > 100 µM
TGI (OVCAR-8 ovarian): > 100 µM
TGI (SNB-78 CNS): > 100 µM
TGI (HL-60(TB) leukemia): > 100 µM
TGI (DMS 273 small cell lung): > 100 µM
TGI (OVCAR-3 ovarian): > 100 µM
TGI (LXFL 529 NSCLC): > 100 µM
TGI (A498 renal): > 100 µM
TGI (U251 CNS): > 100 µM
TGI (HCT-15 colon): > 100 µM
TGI (K-562 leukemia): > 100 µM
TGI (UO-31 renal): > 100 µM
TGI (IGROV1 ovarian): > 100 µM
TGI (NCI-H522 lung): > 100 µM
TGI (HOP-92 NSCLC): > 100 µM
TGI (LOX IMVI melanoma): > 100 µM
TGI (CAKI-1 renal): > 100 µM
TGI (M19-MEL melanoma): > 100 µM
TGI (SF-295 CNS): > 100 µM
TGI (MOLT-4 leukemia): > 100 µM
TGI (ACHN renal): > 100 µM
TGI (SNB-19 CNS): > 100 µM
TGI (COLO 205 colon): > 100 µM
TGI (DMS 114 small cell lung): > 100 µM
TGI (SK-MEL-5 melanoma): > 100 µM
TGI (EKVX NSCLC): > 100 µM
TGI (HT29 colon): > 100 µM
TGI (MALME-3M melanoma): > 100 µM
TGI (SK-MEL-2 melanoma): > 100 µM
TGI (NCI-H23 lung): > 100 µM
TGI (RPMI-8226 leukemia): > 100 µM

CNC(=S)N(C)C(=S)Nn1c(=O)c(C)nn(C)c1=S
TGI (DLD-1 colon): > 100 µM
TGI (CCRF-CEM leukemia): > 100 µM
TGI (HCT-116 colon): > 100 µM
TGI (NCI-H226 lung): > 100 µM
TGI (M14 melanoma): > 100 µM
TGI (SW-620 colon): > 100 µM
TGI (SNB-75 CNS): > 100 µM
TGI (OVCAR-5 ovarian): > 100 µM
TGI (KM12 colon): > 100 µM
TGI (SN12C renal): > 100 µM
TGI (SF-539 CNS): > 100 µM
TGI (SF-268 CNS): > 100 µM
TGI (SR leukemia): > 100 µM
TGI (RXF 393 renal): > 100 µM
TGI (HOP-18 NSCLC): > 100 µM
TGI (HOP-62 NSCLC): > 100 µM
TGI (SK-MEL-28 melanoma): > 100 µM
TGI (NCI-H460 lung): > 100 µM
TGI (KM20L2 colon): > 100 µM
TGI (UACC-257 melanoma): > 100 µM
TGI (UACC-62 melanoma): > 100 µM
TGI (OVCAR-8 ovarian): > 100 µM
TGI (SNB-78 CNS): > 100 µM
TGI (HL-60(TB) leukemia): > 100 µM
TGI (DMS 273 small cell lung): > 100 µM
TGI (LXFL 529 NSCLC): > 100 µM
TGI (A498 renal): > 100 µM
TGI (U251 CNS): > 100 µM
TGI (HCT-15 colon): > 100 µM
TGI (A549 NSCLC): > 100 µM
TGI (K-562 leukemia): > 100 µM
TGI (IGROV1 ovarian): > 100 µM
TGI (NCI-H522 lung): > 100 µM
TGI (HOP-92 NSCLC): > 100 µM
TGI (LOX IMVI melanoma): > 100 µM
TGI (M19-MEL melanoma): > 100 µM
TGI (SF-295 CNS): > 100 µM
TGI (MOLT-4 leukemia): > 100 µM
TGI (ACHN renal): > 100 µM
TGI (SNB-19 CNS): > 100 µM
TGI (COLO 205 colon): > 100 µM
TGI (OVCAR-4 ovarian): > 100 µM
TGI (786-0 renal): > 100 µM
TGI (DMS 114 small cell lung): > 100 µM
TGI (SK-MEL-5 melanoma): > 100 µM
TGI (EKVX NSCLC): > 100 µM
TGI (HT29 colon): > 100 µM
TGI (NCI-H23 lung): > 100 µM
TGI (RPMI-8226 leukemia): > 100 µM

COc1ccc(NC(=O)CCc2cc(-c3ccc(O)c(OC)c3)nc(NC#N)n2)cc1
TGI (DLD-1 colon): > 100 µM
TGI (SK-OV-3 ovarian): > 100 µM
TGI (CCRF-CEM leukemia): > 100 µM
TGI (HCT-116 colon): > 100 µM
TGI (NCI-H226 lung): > 100 µM
TGI (M14 melanoma): > 100 µM
TGI (SW-620 colon): > 100 µM
TGI (OVCAR-5 ovarian): > 100 µM
TGI (KM12 colon): > 100 µM
TGI (SN12C renal): > 100 µM
TGI (HCC-2998 colon): > 100 µM
TGI (SF-539 CNS): > 100 µM
TGI (SF-268 CNS): > 100 µM
TGI (SR leukemia): > 100 µM
TGI (RXF 393 renal): > 100 µM
TGI (HOP-18 NSCLC): > 100 µM
TGI (HOP-62 NSCLC): > 100 µM
TGI (SK-MEL-28 melanoma): > 100 µM
TGI (NCI-H460 lung): > 100 µM
TGI (KM20L2 colon): > 100 µM
TGI (UACC-257 melanoma): > 100 µM
TGI (UACC-62 melanoma): > 100 µM
TGI (OVCAR-8 ovarian): > 100 µM
TGI (SNB-78 CNS): > 100 µM
TGI (HL-60(TB) leukemia): > 100 µM
TGI (OVCAR-3 ovarian): > 100 µM
TGI (LXFL 529 NSCLC): > 100 µM
TGI (U251 CNS): > 100 µM
TGI (HCT-15 colon): > 100 µM
TGI (A549 NSCLC): > 100 µM
TGI (K-562 leukemia): > 100 µM
TGI (UO-31 renal): > 100 µM
TGI (IGROV1 ovarian): > 100 µM
TGI (HOP-92 NSCLC): > 100 µM
TGI (LOX IMVI melanoma): > 100 µM
TGI (CAKI-1 renal): > 100 µM
TGI (M19-MEL melanoma): > 100 µM
TGI (SF-295 CNS): > 100 µM
TGI (MOLT-4 leukemia): > 100 µM
TGI (ACHN renal): > 100 µM
TGI (SNB-19 CNS): > 100 µM
TGI (COLO 205 colon): > 100 µM
TGI (OVCAR-4 ovarian): > 100 µM
TGI (786-0 renal): > 100 µM
TGI (DMS 114 small cell lung): > 100 µM
TGI (EKVX NSCLC): > 100 µM
TGI (HT29 colon): > 100 µM
TGI (MALME-3M melanoma): > 100 µM
TGI (SK-MEL-2 melanoma): > 100 µM
TGI (NCI-H23 lung): > 100 µM

O=C(c1ccc(O)cc1)C1c2c3c(cc(O)c2C(c2ccc(O)cc2)C1c1cc(O)cc(O)c1)OC(c1ccc(O)cc1)C3c1cc2c(cc1O)OC(c1ccc(O)cc1)C2c1cc(O)cc(O)c1 (centres undefined)
TGI (DLD-1 colon): > 12.5 µM
TGI (CCRF-CEM leukemia): > 12.5 µM
TGI (HCT-116 colon): > 12.5 µM
TGI (NCI-H226 lung): > 12.5 µM
TGI (M14 melanoma): > 12.5 µM
TGI (SW-620 colon): > 12.5 µM
TGI (SNB-75 CNS): > 12.5 µM
TGI (OVCAR-5 ovarian): > 12.5 µM
TGI (KM12 colon): > 12.5 µM
TGI (SN12C renal): > 12.5 µM
TGI (HCC-2998 colon): > 12.5 µM
TGI (SF-539 CNS): > 12.5 µM
TGI (SF-268 CNS): > 12.5 µM
TGI (SR leukemia): > 12.5 µM
TGI (TK-10 renal): > 12.5 µM
TGI (HOP-62 NSCLC): > 12.5 µM
TGI (SK-MEL-28 melanoma): > 12.5 µM
TGI (NCI-H460 lung): > 12.5 µM
TGI (KM20L2 colon): > 12.5 µM
TGI (UACC-257 melanoma): > 12.5 µM
TGI (UACC-62 melanoma): > 12.5 µM
TGI (OVCAR-8 ovarian): > 12.5 µM
TGI (HL-60(TB) leukemia): > 12.5 µM
TGI (DMS 273 small cell lung): > 12.5 µM
TGI (OVCAR-3 ovarian): > 12.5 µM
TGI (LXFL 529 NSCLC): > 12.5 µM
TGI (A498 renal): > 12.5 µM
TGI (U251 CNS): > 12.5 µM
TGI (HCT-15 colon): > 12.5 µM
TGI (A549 NSCLC): > 12.5 µM
TGI (K-562 leukemia): > 12.5 µM
TGI (UO-31 renal): > 12.5 µM
TGI (NCI-H522 lung): > 12.5 µM
TGI (HOP-92 NSCLC): > 12.5 µM
TGI (LOX IMVI melanoma): > 12.5 µM
TGI (CAKI-1 renal): > 12.5 µM
TGI (M19-MEL melanoma): > 12.5 µM
TGI (MOLT-4 leukemia): > 12.5 µM
TGI (ACHN renal): > 12.5 µM
TGI (SNB-19 CNS): > 12.5 µM
TGI (COLO 205 colon): > 12.5 µM
TGI (OVCAR-4 ovarian): > 12.5 µM
TGI (786-0 renal): > 12.5 µM
TGI (DMS 114 small cell lung): > 12.5 µM
TGI (SK-MEL-5 melanoma): > 12.5 µM
TGI (EKVX NSCLC): > 12.5 µM
TGI (MALME-3M melanoma): > 12.5 µM
TGI (SK-MEL-2 melanoma): > 12.5 µM
TGI (NCI-H23 lung): > 12.5 µM
TGI (RPMI-8226 leukemia): > 12.5 µM
